In patent US7064124B2, “NF-κB inhibitor containing substituted benzoic acid derivative as active ingredient” (Daiichi Suntory Pharma Co., Ltd., priority 2001, dated 2006):
Where a name gives a salt, the structure may show the parent alone.

System: not given
Assay: not given
Conditions: not given

Row | Compound | melting point
1 | COC1=C(OC)C(=O)C(Cc2ccc(OC(C)=O)c(C(=O)Nc3ccccn3)c2)=C(C)C1=O [Example 155, N-(Pyridin-2-yl)-5-(5,6-dimethoxy-3-methyl-1,4-benzoquinon-2-yl)methyl-2-acetoxybenzamide] | 124 to 126.5 °C
2 | COC1=C(OC)C(=O)C(Cc2cccc(C(=O)Nc3ccc(C(F)(F)F)cc3)c2OC(C)=O)=C(C)C1=O [Example 165, N-[3-(5,6-Dimethoxy-3-methyl-1,4-benzoquinon-2-yl)methyl-2-acetoxybenzoyl]-4-trifluoromethylaniline] | 163 to 166 °C
3 | COC1=C(OC)C(=O)C(Cc2ccc(OC(C)=O)c(C(=O)Nc3ccc(C(=O)O)cn3)c2)=C(C)C1=O [Example 197, N-(5-Hydroxycarbonylpyridin-2-yl)-5-(5,6-dimethoxy-3-methyl-1,4-benzoquinon-2-yl)methyl-2-acetoxybenzamide] | 123 to 125 °C
4 | CC(=O)Oc1ccc(CC2=C(C)C(=O)C(C)=C(C)C2=O)cc1C(=O)Nc1ccc(C(F)(F)F)cc1 [Example 234, N-[5-(3,5,6-Trimethyl-1,4-benzoquinon-2-yl)methyl-2-acetoxybenzoyl]-4-trifluoromethylaniline] | 180 to 181 °C
5 | COC1=C(OC)C(=O)C(Cc2ccc(OC(C)=O)c(C(=O)Nc3ccc(C(=O)O)cc3)c2)=C(C)C1=O [Example 189, N-[5-(5,6-Dimethoxy-3-methyl-1,4-benzoquinon-2-yl)methyl-2-acetoxybenzoyl]-4-aminobenzoic acid] | 199 to 201.5 °C
6 | COC1=C(OC)C(=O)C(Cc2ccc(OC(C)=O)c(C(=O)Nc3ncccc3C(=O)O)c2)=C(C)C1=O [Example 194, N-(3-Hydroxycarbonylpyridin-2-yl)-5-(5,6-dimethoxy-3-methyl-1,4-benzoquinon-2-yl)methyl-2-acetoxybenzamide] | 148 to 151 °C
7 | COC1=C(OC)C(=O)C(Cc2ccc(O)c(C(=O)Nc3ccc(-n4ccnc4)cc3)c2)=C(C)C1=O [Example 209, N-[5-(5,6-Dimethoxy-3-methyl-1,4-benzoquinon-2-yl)methyl-2-hydroxybenzoyl]-4-(imidazol-1-yl)aniline] | 119 to 121.5 °C
8 | COC1=C(OC)C(=O)C(Cc2ccc(OCc3cccnc3)c(C(=O)Nc3ccncc3)c2)=C(C)C1=O [Example 168, N-(Pyridin-4-yl)-5-(5,6-dimethoxy-3-methyl-1,4-benzoquinon-2-yl)methyl-2-(3-pyridylmethyloxy)benzamide] | 116 to 119 °C
9 | COC1=C(OC)C(=O)C(Cc2ccc(OC(C)=O)c(C(=O)Nc3ccc(F)cc3)c2)=C(C)C1=O [Example 141, N-[5-(5,6-Dimethoxy-3-methyl-1,4-benzoquinon-2-yl)methyl-2-acetoxybenzoyl]-4-fluoroaniline] | 128.5 to 130.5 °C
10 | COC1=C(OC)C(=O)C(Cc2ccc(OCc3cccnc3)c(C(=O)Nc3cccnc3)c2)=C(C)C1=O [Example 169, N-(Pyridin-3-yl)-5-(5,6-dimethoxy-3-methyl-1,4-benzoquinon-2-yl)methyl-2-(3-pyridylmethyloxy)benzamide] | 135 to 137 °C
11 | COC1=C(OC)C(=O)C(Cc2ccc(O)c(C(=O)Nc3ccc(C(=O)O)cc3)c2)=C(C)C1=O [Example 190, N-[5-(5,6-Dimethoxy-3-methyl-1,4-benzoquinon-2-yl)methyl-2-hydroxybenzoyl]-4-aminobenzoic acid] | 257 to 260 °C
12 | COC1=C(OC)C(=O)C(Cc2ccc(OC(C)=O)c(C(=O)Nc3ccccc3C(F)(F)F)c2)=C(C)C1=O [Example 145, N-[5-(5,6-Dimethoxy-3-methyl-1,4-benzoquinon-2-yl)methyl-2-acetoxybenzoyl]-2-trifluoromethylaniline] | 57.5 to 60 °C
13 | COC1=C(OC)C(=O)C(Cc2ccc(OC(C)=O)c(C(=O)Nc3cccc([N+](=O)[O-])c3)c2)=C(C)C1=O [Example 143, N-[5-(5,6-Dimethoxy-3-methyl-1,4-benzoquinon-2-yl)methyl-2-acetoxybenzoyl]-3-nitroaniline] | 152 to 153.5 °C

System: NF-κB
Assay: NF-κB luciferase reporter assay in A549/NF-κBLuc cells stimulated with IL-1β
Format: cell-based, human
Conditions: A549/NF-κBLuc cells; compound added 1 hour before IL-1β, then 3 hours incubation; luciferase activity; read-out: NF-κB Inhibitory Activity (IC50)
Description: Effect on Human Lung Cancer-Derived Cell A549 (A549/NF-κBluc) Containing Stably Introduced Luciferase Plasmid (pNFκB-Luc, Stratagene. U.S.A.) Regulated by NF-κB Binding Sequence
Using Lipofectamine (Lifetech Oriental, Tokyo), pNFκB-Luc and pSV2neo (Clontech, U.S.A.) were co-transfected into the A549 cell (ATCC CCL185) and G418 sulfate (1 mg/ml, Lifetech Oriental) was added to the culture medium to select cells containing stably introduced pNFκB-Luc A549/NF-κBLuc.
The compound obtained in Examples each was added to A549/NF-κBLuc and one hour after that, IL-1β capable of activating NF-κB was added. The incubation was further continued for 3 hours.
NF-κB Inhibitory Activity (IC50) of Substituted Benzoic Acid Derivitives: […]

Row | Compound | IC50
14 | COC1=C(OC)C(=O)C(Cc2ccc(OCc3cccnc3)c(C(=O)N3CCCCC3)c2)=C(C)C1=O [Example 92 (HCl)] | 46 µM
15 | COC1=C(OC)C(=O)C(Cc2ccc(OCc3ccncc3)c(C(=O)N3CCCCC3)c2)=C(C)C1=O [Example 95 (pTsOH)] | 51 µM

Same assay, conditions: Homo sapiens, A549, A549/NF-κBLuc cells; compound added 1 hour before IL-1β, then 3 hours incubation; luciferase activity; read-out: NF-κB Inhibitory Activity (IC50)

Row | Compound | IC50
16 | COC(=O)c1cc(CC2=C(C)C(=O)C(OC)=C(OC)C2=O)ccc1OCC(=O)OC(C)(C)C [Example 130, Methyl 5-(5,6-Dimethoxy-3-methyl-1,4-benzoquinon-2-yl)methyl-2-(tert-butoxycarbonylmethyloxy)benzoate] | 59 µM
17 | COC1=C(OC)C(=O)C(Cc2ccc(O)c(C(=O)Nc3cc(OC)c(OC)c(OC)c3)c2)=C(C)C1=O [Example 114, N-[5-(5,6-Dimethoxy-3-methyl-1,4-benzoquinon-2-yl)methyl-2-hydroxybenzoyl]-3,4,5-trimethoxyaniline] | 48 µM
18 | COC1=C(OC)C(=O)C(Cc2ccc(O)c(C(=O)Nc3ccc(C#N)cc3)c2)=C(C)C1=O [Example 119, N-[5-(5,6-Dimethoxy-3-methyl-1,4-benzoquinon-2-yl)methyl-2-hydroxybenzoyl]-4-cyanoaniline] | 13 µM
19 | COC1=C(OC)C(=O)C(Cc2cccc(C(=O)Nc3ccc(OC)cc3)c2O)=C(C)C1=O [Example 79, N-[3-(5,6-Dimethoxy-3-methyl-1,4-benzoquinon-2-yl)methyl-2-hydroxybenzoyl]-4-methoxyaniline] | 27 µM
20 | COC1=C(OC)C(=O)C(Cc2cccc(C(=O)N3CCOCC3)c2O)=C(C)C1=O [Example 78, N-[3-(5,6-Dimethoxy-3-methyl-1,4-benzoquinon-2-yl)methyl-2-hydroxybenzoyl]morpholine] | 57 µM
21 | COC1=C(OC)C(=O)C(Cc2ccc(Oc3ccccc3)c(C(=O)N3CCCc4ccccc43)c2)=C(C)C1=O [Example 124, N-[5-(5,6-Dimethoxy-3-methyl-1,4-benzoquinon-2-yl)methyl-2-phenoxybenzoyl]-1,2,3,4-tetrahydroquinoline] | 46 µM
22 | COC1=C(OC)C(=O)C(Cc2ccc(OC(C)C)c(C(=O)N3CCOCC3)c2)=C(C)C1=O [Example 84, N-[5-(5,6-Dimethoxy-3-methyl-1,4-benzoquinon-2-yl)methyl-2-isopropoxybenzoyl]morpholine] | 63 µM
23 | COC1=C(OC)C(=O)C(Cc2ccc(OC(C)=O)c(C(=O)Nc3ccc(C(C)=O)cc3)c2)=C(C)C1=O [Example 108, N-[5-(5,6-Dimethoxy-3-methyl-1,4-benzoquinon-2-yl)methyl-2-acetoxybenzoyl]-4-acetylaniline] | 67 µM
24 | COC1=C(OC)C(=O)C(Cc2ccc(O)c(C(=O)Nc3cc(C(F)(F)F)cc(C(F)(F)F)c3)c2)=C(C)C1=O [Example 121, N-[5-(5,6-Dimethoxy-3-methyl-1,4-benzoquinon-2-yl)methyl-2-hydroxybenzoyl]-3,5-bistrifluoromethylaniline] | 64 µM
25 | COC1=C(OC)C(=O)C(Cc2ccc(OC(C)=O)c(C(=O)N(C)c3ccc(OC)cc3)c2)=C(C)C1=O [Example 163, N-Methyl-[5-(5,6-dimethoxy-3-methyl-1,4-benzoquinon-2-yl)methyl-2-acetoxybenzoyl]-4-methoxyaniline] | 30 µg/mL
26 | COC1=C(OC)C(=O)C(Cc2ccc(OC(C)=O)c(C(=O)Nc3ccc(Cl)cc3)c2)=C(C)C1=O [Example 109, N-[5-(5,6-Dimethoxy-3-methyl-1,4-benzoquinon-2-yl)methyl-2-acetoxybenzoyl]-4-chloroaniline] | 46 µM
27 | COC1=C(OC)C(=O)C(Cc2ccc(Oc3cccc(OC)c3)c(C(=O)N3CCCCC3)c2)=C(C)C1=O [Example 89, N-[5-(5,6-Dimethoxy-3-methyl-1,4-benzoquinon-2-yl)methyl-2-(3-methoxyphenoxy)benzoyl]piperidine] | 45 µM
28 | COC1=C(OC)C(=O)C(Cc2ccc(OC)c(C(=O)N3CCCCC3)c2)=C(C)C1=O [Example 80, N-[5-(5,6-Dimethoxy-3-methyl-1,4-benzoquinon-2-yl)methyl-2-methoxybenzoyl]piperidine] | 82 µM
29 | COC1=C(OC)C(=O)C(Cc2ccc(O)c(C(=O)Nc3ccc(N4CCOCC4)cc3)c2)=C(C)C1=O [Example 118, N-[5-(5,6-Dimethoxy-3-methyl-1,4-benzoquinon-2-yl)methyl-2-hydroxybenzoyl]-4-morpholinoaniline] | 8.3 µM
30 | COC1=C(OC)C(=O)C(Cc2ccc(OCC(=O)OC(C)(C)C)c(C(=O)N3CCCCC3)c2)=C(C)C1=O [Example 104, N-[5-(5,6-Dimethoxy-3-methyl-1,4-benzoquinon-2-yl)methyl-2-(tert-butoxycarbonylmethyloxy)benzoyl]piperidine] | 29 µM
31 | COC1=C(OC)C(=O)C(Cc2ccc(OC(C)=O)c(C(=O)Nc3ccc(N4CCOCC4)cc3)c2)=C(C)C1=O [Example 110, N-[5-(5,6-Dimethoxy-3-methyl-1,4-benzoquinon-2-yl)methyl-2-acetoxybenzoyl]-4-morpholinoaniline] | 34 µM
32 | COC1=C(OC)C(=O)C(Cc2ccc(OC(C)=O)c(C(=O)Nc3cc(OC)c(OC)c(OC)c3)c2)=C(C)C1=O [Example 106, N-[5-(5,6-Dimethoxy-3-methyl-1,4-benzoquinon-2-yl)methyl-2-acetoxybenzoyl]-3,4,5-trimethoxyaniline] | 70 µM
33 | COC1=C(OC)C(=O)C(Cc2ccc(OC(C)=O)c(C(=O)Nc3ccc(OC)c(OC)c3)c2)=C(C)C1=O [Example 107, N-[5-(5,6-Dimethoxy-3-methyl-1,4-benzoquinon-2-yl)methyl-2-acetoxybenzoyl]-3,4-dimethoxyaniline] | 84 µM
